The structures appear in SMILES notation.

Common to all, as to assay: modified broth dilution assay, 96-well plates (MIC)
Common to all, as to format: cell-based
(In broth dilution the organism is exposed to a series of concentrations in liquid medium.)

One experiment has as its system Bacillus subtilis. Particulars: overnight 37.0° C., absorbance 600 nm. Here is the method:
(§1) In order to determine the minimal inhibitory concentration (MIC) for the bioflavonoids (BC), allicin (AL) and ajoene (AJ) on selected Gram-positive bacteria, Gram-negative bacteria and yeast, a modified broth dilution assay using 96-well plates, according to Wiegand, Hilpert and Hancock (2008), was performed.
(§2) The microorganisms for the study were obtained from Cardiff University. The cultures used in the study were prepared by aseptic inoculation of microorganisms from pure plate cultures into 50 ml of sterile nutrient broth. The cultures were incubated overnight at 37.0° C. without agitation. Prior to use the cultures were washed by centrifugation in a desk top centrifuge at 3000 RPM for 15 minutes and the pellet resuspended in sterile saline (0.85% NaCl).
(§3) In order to determine the activity of the compounds both individually as well as in combination, a range of concentrations of each compound was used in a doubling dilution. The highest concentration used was dependent on the organism in question (whether Gram-positive bacteria, Gram-negative bacteria or yeast). From the highest concentration used in the test the samples were diluted five times in order to give six different concentrations per compound.
(§4) The allicin samples were aqueous solutions and were therefore diluted directly using H2O. However, the ajoene was in oil form and the bioflavonoids were in powder form, neither of which were water soluble. Before dilution the ajoene and bioflavonoids were solubilised by creation of a stock solution using 80% DMSO.
(§5) The wells on the 96-well plates were prepared in triplicate as follows: the AL, AJ and BC were pre-diluted in Eppendorf tubes at 10× the required final concentration. 20 μl of each dilution was added per well to give a 1:10 dilution in the final 200 μl per well. A matrix of concentrations of mixtures of allicin:bioflavonoid, ajoene:bioflavonoid and allicin:ajoene:bioflavonoid was used, with the dilution gradients of allicin and ajoene running inversely to bioflavonoids.
(§6) 130 μl of sterile nutrient broth (Nutrient Broth No. 3 (Sigma 70149)) was added to each well.
(§7) 50 μl of each microorganism suspended in saline was added to each well (except for the negative control). Each species of microorganism was added to two plates, the first for the individual (control) assays and the second for the matrix study. The plates were incubated at 37.0° C. overnight without agitation.
(§8) The plates were scanned individually using a Tecan plate reader at 600 nm and the absorbance recorded in a comma-delimited file for analysis.
(§9) The absorbance for each sample was compared to the growth (absorbance) of the control cultures (without treatment) in order to determine the MIC (all values blanked against negative control to negate absorbance of plate and broth). The mean and standard deviation of the triplicate experiments were determined and the means plotted on scatter diagrams for comparison.

A further experiment concerns Candida tropicalis. The settings on record: overnight 37.0° C., absorbance 600 nm. The protocol: as §1, §2, §3, §4, §5, §6, §7, §8, §9
A further experiment concerns Escherichia coli. The settings on record: overnight 37.0° C., absorbance 600 nm. Here is the method:
as §1, §2, §3, §4, §5, §6, §7, §8, §9

A further experiment deals with Klebsiella pneumonia. Particulars: Klebsiella pneumoniae, overnight 37.0° C., absorbance 600 nm. The protocol:
as §1, §2, §3, §4, §5, §6, §7, §8, §9

Another experiment relates to Pseudomonas aeruginosa. The settings on record: overnight 37.0° C., absorbance 600 nm. The protocol:
as §1, §2, §3, §4, §5, §6, §7, §8, §9

Another experiment deals with Staphylococcus aureus. Particulars: overnight 37.0° C., absorbance 600 nm. Here is the method:
as §1, §2, §3, §4, §5, §6, §7, §8, §9

Take `C=CCSSC=CC[S+]([O-])CC=C` (mixture of isomers) [Ajoene, (E,Z)-4,5,9-trithiadodeca-1,6,11-triene 9-oxide]: the MIC is 24 µg/mL with Bacillus subtilis; 24 µg/mL in the experiment with Candida tropicalis; 24 µg/mL with Escherichia coli; 12 µg/mL in the experiment on Klebsiella pneumonia; 12 µg/mL in the experiment on Pseudomonas aeruginosa; 48 µg/mL in the experiment on Staphylococcus aureus.
With `C=CCS[S+]([O-])CC=C` (stereo not drawn) [Allicin, 2-Propene-1-sulfinothioic acid S-2-propenyl], the MIC turned out to be 9.2 µg/mL with Bacillus subtilis; 9.2 µg/mL in the experiment on Candida tropicalis; 18.4 µg/mL with Escherichia coli; 46 µg/mL with Klebsiella pneumonia; 9.2 µg/mL in the experiment with Pseudomonas aeruginosa; 27.6 µg/mL with Staphylococcus aureus.

In general, MIC refers to the lowest concentration that inhibits growth of the organism.

The values above are taken from patent US20230285493A1, “ANTIMICROBIAL COMPOSITION” (Mootral SA, priority 2014, published 2023).
